Each structure is given as a SMILES string.

This assay addresses T1, Human complement C1s enzyme (Homo sapiens, UniProt P09871).
T1 construct: purified from human serum, Complement Technology, Inc; purchased Complement Technology, Inc; host or cells: human serum (plasma-derived native protein)
T1 sequence (P09871 438-688 limits assumed): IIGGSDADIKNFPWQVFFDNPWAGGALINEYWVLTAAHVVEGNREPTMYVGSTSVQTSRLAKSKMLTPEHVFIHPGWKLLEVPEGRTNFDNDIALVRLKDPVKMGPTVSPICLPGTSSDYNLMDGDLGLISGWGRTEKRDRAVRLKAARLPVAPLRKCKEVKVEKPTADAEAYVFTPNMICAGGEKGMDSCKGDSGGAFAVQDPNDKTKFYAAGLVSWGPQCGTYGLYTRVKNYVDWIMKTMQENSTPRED
T1 sequence (P09871 16-437 partner limits assumed): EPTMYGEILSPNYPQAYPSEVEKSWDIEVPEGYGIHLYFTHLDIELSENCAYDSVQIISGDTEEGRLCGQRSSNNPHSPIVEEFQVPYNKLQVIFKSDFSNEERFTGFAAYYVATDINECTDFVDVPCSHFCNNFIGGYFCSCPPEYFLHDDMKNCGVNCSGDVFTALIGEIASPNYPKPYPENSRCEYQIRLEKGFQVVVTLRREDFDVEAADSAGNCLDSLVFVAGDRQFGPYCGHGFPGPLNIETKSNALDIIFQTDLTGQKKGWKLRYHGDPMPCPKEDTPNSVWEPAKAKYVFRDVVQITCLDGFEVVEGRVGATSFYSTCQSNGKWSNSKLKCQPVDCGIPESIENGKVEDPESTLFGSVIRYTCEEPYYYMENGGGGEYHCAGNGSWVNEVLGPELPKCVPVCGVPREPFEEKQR
Description: Human C1s enzyme assay. The assay is classed as biochemical. The settings on record: human complement C1s enzyme 1.16 nM, substrate Z-L-Lys-SBzl, A405; read-out: IC50 (Stars). The procedure, abridged:
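Thioesterase activity followed colorimetrically (DTNB, A405, 30-s reads) using 100 μM Z-L-Lys-SBzl substrate. Enzyme, human serum-derived C1s at 1.16 nM final, was incubated with test compound for 5 min, room temperature, pH 7.5 Tris buffer with 1 M NaCl. Rate-versus-concentration data fitted by nonlinear regression for IC50.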

In general, IC50 refers to the concentration needed to halve the response being measured. Turning to `C[C@@H](Nc1cnc(C2CCCC2)n(CC(=O)NCc2cc3cnccc3[nH]2)c1=O)c1coc(-c2ccccc2)n1` [Compound 476, (R)-N-((1H-pyrrolo[3,2-c]pyridin-2-yl)methyl)-2-(2-cyclopentyl-6-oxo-5-((1-(2-phenyloxazol-4-yl)ethyl)-amino)pyrimidin-1(6H)-yl)-acetamide], the concentration for half-maximal inhibition (IC50) was in the range of 100 to 1000 nM.
Under `O=C(Cn1c(N2CCCCC2)cnc(NCc2cc(-c3ccccc3)ns2)c1=O)NCc1cc2cnccc2[nH]1` [Compound 477, N-((1H-pyrrolo[3,2-c]pyridin-2-yl)methyl)-2-(2-oxo-3-(((3-phenylisothiazol-5-yl)methyl)-amino)-6-(piperidin-1-yl)pyr-azin-1(2H)-yl)acetamide] stands under 100 nM.
In the case of `O=C(Cn1c(N2CCCCC2)cnc(NCc2noc(-c3ccccc3)n2)c1=O)NCc1cc2cnccc2[nH]1` [Compound 478, N-((1H-pyrrolo[3,2-c]pyridin-2-yl)methyl)-2-(2-oxo-3-(((5-phenyl-1,2,4-oxadiazol-3-yl)-methyl)amino)-6-(piperidin-1-yl)pyrazin-1(2H)-yl)acetamide], the 50% inhibitory concentration (IC50) was under 100 nM.
Under `O=C(Cn1c(N2CCCCC2)cnc(NCc2cc(-c3ccccc3F)on2)c1=O)NCc1cc2cnccc2[nH]1` [Compound 479, N-((1H-pyrrolo[3,2-c]pyridin-2-yl)methyl)-2-(3-(((5-(2-fluorophenyl)isoxazol-3-yl)-methyl)amino)-2-oxo-6-(piper-idin-1-yl)pyrazin-1(2H)-yl)-acetamide] stands under 100 nM; under `O=C(Cn1c(N2CCCCC2)cnc(NCc2noc3ccccc23)c1=O)NCc1cc2cnccc2[nH]1` [Compound 480, N-((1H-pyrrolo[3,2-c]pyridin-2-yl)methyl)-2-(3-((benzo[d]isoxazol-3-ylmethyl)amino)-2-oxo-6-(piperidin-1-yl)pyrazin-1(2H)-yl)acetamide], under 100 nM.
The same measure for `C[C@@H](Nc1cnc(N2CCCC2)n(CC(=O)NCc2cc3cnccc3[nH]2)c1=O)c1coc(-c2ccccc2)n1` [Compound 481, (R)-N-((1H-pyrrolo[3,2-c]pyridin-2-yl)methyl)-2-(6-oxo-5-((1-(2-phenyloxazol-4-yl)-ethyl)amino)-2-(pyrrolidin-1-yl)pyrimidin-1(6H)-yl)acet-mide]: 100 to 1000 nM; for `COCC(=O)N1CCN(c2ncc(N[C@H](C)c3ccc4oc5ccccc5c4c3)c(=O)n2CC(=O)NCc2cc3cnccc3[nH]2)CC1` [Compound 482, (R)-N-((1H-pyrrolo[3,2-c]pyridin-2-yl)methyl)-2-(5-((1-(dibenzo[b,d]furan-2-yl)ethyl)-amino)-2-(4-(2-methoxyacet-yl)piperazin-1-yl)-6-oxopyr-imidin-1(6H)-yl)acetamide]: under 100 nM; for `Cn1cc(-c2ncc(NCc3cc4ccccc4o3)c(=O)n2CC(=O)NCc2cc3cnccc3[nH]2)cn1` [Compound 483, N-((1H-pyrrolo[3,2-c]pyridin-2-yl)methyl)-2-(5-((benzo-furan-2-ylmethyl)amino)-2-(1-methyl-1H-pyrazol-4-yl)-6-oxopyrimidin-1(6H)-yl)-acetamide]: under 100 nM.
The same measure for `O=C(Cn1cncc(NCc2cc(-c3ccccc3)ns2)c1=O)NCc1cc2cnccc2[nH]1` [Compound 484, N-((1H-pyrrolo[3,2-c]pyridin-2-yl)methyl)-2-(6-oxo-5-(((3-phenylisothiazol-5-yl)methyl)-amino)pyrimidin-1(6H)-yl)-acetamide]: under 100 nM; for `O=C(Cn1cncc(NCc2nnc(-c3ccccc3)s2)c1=O)NCc1cc2cnccc2[nH]1` [Compound 485, N-((1H-pyrrolo[3,2-c]pyridin-2-yl)methyl)-2-(6-oxo-5-(((5-phenyl-1,3,4-thiadiazol-2-yl)-methyl)amino)pyrimidin-1(6H)-yl)acetamide]: under 100 nM; for `O=C(Cn1cncc(NCc2cc3ccccc3o2)c1=O)NCc1cc2cnccc2[nH]1` [Compound 486, N-((1H-pyrrolo[3,2-c]pyridin-2-yl)methyl)-2-(5-((benzofuran-2-ylmethyl)amino)-6-oxopyr-imidin-1(6H)-yl)acetamide]: under 100 nM.
As to `C[C@@H](Nc1cnc(N2CCCCC2)n(CC(=O)NCc2cc3cnccc3[nH]2)c1=O)c1nc(-c2ccccc2)co1` [Compound 487, (R)—N-((1H-Pyrrolo[3,2-c]pyridine-2-yl)methyl)-2-(6-oxo-5-((1-(4-phenyloxazol-2-yl)ethyl)amino)-2-(piperidin-1-yl)pyrimidin-1(6H)-yl) acetamide], the half-inhibitory concentration (IC50) is under 100 nM.
On to `C[C@@H](Nc1cnc(N2CCCCC2)n(CC(=O)NCc2cc3cnccc3[nH]2)c1=O)c1ncc(-c2ccccc2)o1` [Compound 488, (R)-N-((1H-pyrrolo[3,2-c]pyridin-2-yl)methyl)-2-(6-oxo-5-((1-(5-phenyloxazol-2-yl)-ethyl)amino)-2-(piperidin-1-yl)pyrimidin-1(6H)-yl)acet-amide], for which the IC50 was under 100 nM.
Consider `O=C(CN1C(=O)[C@H](NCCCc2ccccc2)CC[C@H]1c1ccccc1)NCc1cc2cnccc2[nH]1` [Compound 490, N-((1H-pyrrolo[3,2-c]pyridin-2-yl)methyl)-2-((3R,6S)-2-oxo-6-phenyl-3-((3-phenylpropyl)-amino)piperidin-1-yl)acetamide], for which the IC50 is over 1000 nM.
With `C[C@@H](Nc1nnc(N2CCCCC2)n(CC(=O)NCc2cc3cnccc3[nH]2)c1=O)c1ccc2oc3ccccc3c2c1` [Compound 491, (R)-N-((1H-pyrrolo[3,2-c]pyridin-2-yl)methyl)-2-(6-((1-(dibenzo[b,d]furan-2-yl)ethyl)-amino)-5-oxo-3-(piperidin-1-yl)-1,2,4-triazin-4(5H)-yl)-acetamide], the IC50 is under 100 nM.
As for `O=C(Cn1c(N2CCOCC2)cnc(NC(=O)c2coc(-c3ccccc3)n2)c1=O)NCc1cc2cnccc2[nH]1` [Compound 492, N-(4-(2-(((1H-Pyrrolo[3,2-c]pyridine-2-yl)methyl)amino)-2-oxoethyl)-5-morpholino-3-oxo-3,4-dihydropyrazin-2-yl)-2-phenyloxazole-4-carboxamide], the IC50 was under 100 nM.
For the molecule `O=C(Cn1c(N2CCCCC2)cnc(N[C@H](CO)c2ccc3oc4ccccc4c3c2)c1=O)NCc1cc2cnccc2[nH]1` [Compound 493, (S)—N-((1H-Pyrrolo[3,2-c]pyridine-2-yl)methyl)-2-(3-((1-(dibenzo[b,d]furan-2-yl)-2-hydroxyethyl)amino)-2-oxo-6-(piperidin-1-yl)pyrazin-1(2H)-yl)acetamide], the IC50 is over 1000 nM.
With `O=C(Cn1c(N2CCCCC2)cnc(N[C@H](CF)c2ccc3oc4ccccc4c3c2)c1=O)NCc1cc2cnccc2[nH]1` [Compound 494, (S)-N-((1H-pyrrolo[3,2-c]pyridin-2-yl)methyl)-2-(3-((1-(dibenzo[b,d]furan-2-yl)-2-fluoroethyl)amino)-2-oxo-6-(piperidin-1-yl)pyrazin-1(2H)-yl)acetamide], the concentration for half-maximal inhibition (IC50) was over 1000 nM.
